Assay results as given in the supplement of paper PMC13380429.

Legend:
Settings in all cases: 72 h
HepG2 [1] = assay: drug sensitivity score (DSS) for viability; higher = more toxic; extreme values may be limits of the assay
Vero E6 [2] = assay: as above
Calu-3 [3] = assay: as above
U2OS [4] = assay: as above
Caco-2 [5] = assay: as above
HepG2 [6] = assay: relative viability EC50 (midpoint between 100% and the lowest measured viability); higher = less toxic
Vero E6 [7] = assay: as above
Calu-3 [8] = assay: as above
U2OS [9] = assay: as above
Caco-2 [10] = assay: as above
HepG2 [11] = assay: cell viability relative to DMSO; higher = less toxic
Vero E6 [12] = assay: as above
Calu-3 [13] = assay: as above
U2OS [14] = assay: as above
Caco-2 [15] = assay: as above

| SMILES | drug sensitivity score (HepG2 [1]) | drug sensitivity score (Vero E6 [2]) | drug sensitivity score (Calu-3 [3]) | drug sensitivity score (U2OS [4]) | drug sensitivity score (Caco-2 [5]) | relative viability EC50 (HepG2 [6]) [µM] | relative viability EC50 (Vero E6 [7]) [µM] | relative viability EC50 (Calu-3 [8]) [µM] | relative viability EC50 (U2OS [9]) [µM] | relative viability EC50 (Caco-2 [10]) [µM] | cell viability (HepG2 [11]; 1 nM) [%] | cell viability (HepG2 [11]; 10 nM) [%] | cell viability (HepG2 [11]; 100 nM) [%] | cell viability (HepG2 [11]; 1000 nM) [%] | cell viability (HepG2 [11]; 10000 nM) [%] | cell viability (Vero E6 [12]; 1 nM) [%] | cell viability (Vero E6 [12]; 10 nM) [%] | cell viability (Vero E6 [12]; 100 nM) [%] | cell viability (Vero E6 [12]; 1000 nM) [%] | cell viability (Vero E6 [12]; 10000 nM) [%] | cell viability (Calu-3 [13]; 1 nM) [%] | cell viability (Calu-3 [13]; 10 nM) [%] | cell viability (Calu-3 [13]; 100 nM) [%] | cell viability (Calu-3 [13]; 1000 nM) [%] | cell viability (Calu-3 [13]; 10000 nM) [%] | cell viability (U2OS [14]; 1 nM) [%] | cell viability (U2OS [14]; 10 nM) [%] | cell viability (U2OS [14]; 100 nM) [%] | cell viability (U2OS [14]; 1000 nM) [%] | cell viability (U2OS [14]; 10000 nM) [%] | cell viability (Caco-2 [15]; 1 nM) [%] | cell viability (Caco-2 [15]; 10 nM) [%] | cell viability (Caco-2 [15]; 100 nM) [%] | cell viability (Caco-2 [15]; 1000 nM) [%] | cell viability (Caco-2 [15]; 10000 nM) [%] |
| --- | --- | --- | --- | --- | --- | --- | --- | --- | --- | --- | --- | --- | --- | --- | --- | --- | --- | --- | --- | --- | --- | --- | --- | --- | --- | --- | --- | --- | --- | --- | --- | --- | --- | --- | --- |
| Oc1cc(O)cc(/C=C/c2ccc(O)c(O)c2)c1 [piceatannol] | 0 | 0 | 0 | 0 | 0.5 | > 10 | > 10 | > 10 | > 10 | > 10 | 98.8 | 87.3 | 105 | 92.7 | 97.7 | 103 | 94.1 | 94.8 | 92.1 | 101 | 95.3 | 93.5 | 90.4 | 99.9 | 88.9 | 97.5 | 98.2 | 94.2 | 100 | 96.1 | 90.2 | 93.7 | 101 | 96.1 | 86 |
| Cc1cccc(C)c1NC(=O)CN1CCCCCC1 [pincainide] | 0 | 0 | 0 | 0 | 0.2 | > 10 | > 10 | > 10 | > 10 | > 10 | 99.2 | 106 | 118 | 104 | 106 | 98.7 | 87.8 | 95.7 | 89.2 | 107 | 95.1 | 96 | 99 | 98.7 | 97.5 | 97.7 | 103 | 98 | 101 | 101 | 94.3 | 102 | 94.1 | 110 | 82 |
| CO[C@H](C(=O)[C@@H](O)[C@@H](C)O)[C@@H]1Cc2cc3cc(O[C@H]4C[C@@H](O[C@H]5C[C@@H](O)[C@H](O)[C@@H](C)O5)[C@@H](O)[C@@H](C)O4)c(C)c(O)c3c(O)c2C(=O)[C@H]1O[C@H]1C[C@@H](O[C@H]2C[C@@H](O[C@H]3C[C@](C)(O)[C@H](O)[C@@H](C)O3)[C@H](O)[C@@H](C)O2)[C@H](O)[C@@H](C)O1 [plicamycin] | 29.1 | 9.2 | 20.8 | 29.5 | 18.9 | 0.0321 | 1.46 | 0.0509 | 0.036 | 0.0245 | 107 | 99.9 | 5.2 | 4.4 | 6.1 | 92.6 | 105 | 95.6 | 73.5 | 4.9 | 107 | 88.4 | 48.5 | 24 | 28.1 | 96.4 | 100 | 5.9 | 1 | 1.5 | 101 | 95 | 42.4 | 58.1 | 65.5 |
| N[C@@H](Cc1ccc(O)cc1)C(=O)O [plovamer-acetate] | 0 | 0 | 0 | 0 | 4.2 | > 10 | > 10 | > 10 | > 10 | > 10 | 87.2 | 94.4 | 93 | 90.1 | 80.1 | 106 | 102 | 96.3 | 104 | 95.5 | 97.9 | 98.5 | 105 | 104 | 102 | 99.1 | 94.8 | 102 | 93.3 | 97.6 | 119 | 83.9 | 84.4 | 90.7 | 92.1 |
| COCCCN1CCC(NC(=O)c2cc(Cl)c(N)c3c2OCC3)CC1 [prucalopride] | 0 | 0 | 0 | 0 | 0 | > 10 | > 10 | > 10 | > 10 | > 10 | 96.7 | 102 | 96.5 | 91 | 96.5 | 106 | 103 | 105 | 101 | 95 | 104 | 97 | 90.1 | 97.6 | 94.9 | 96.9 | 97.7 | 97.7 | 97.9 | 102 | 102 | 82.8 | 102 | 102 | 101 |
| CCN1CCC[C@H]1CNC(=O)c1c(O)c(Cl)cc(Cl)c1OC [raclopride] | 0 | 0 | 0 | 0 | 0 | > 10 | > 10 | > 10 | > 10 | > 10 | 99.6 | 104 | 93.7 | 101 | 93.1 | 101 | 100 | 94.7 | 93 | 100 | 97.9 | 94 | 92.4 | 96.7 | 97.4 | 101 | 95.2 | 96.6 | 95 | 99.9 | 91.2 | 88.3 | 93.5 | 84 | 96.6 |
| COC(=O)CC[C@@H]1N=C(c2ccccn2)c2cc(Br)ccc2-n2c(C)cnc21 [remimazolam] | 0 | 0 | 0 | 0 | 0 | > 10 | > 10 | > 10 | > 10 | > 10 | 97.1 | 83.5 | 103 | 100 | 108 | 103 | 96.5 | 99.3 | 96 | 99.8 | 104 | 94.1 | 111 | 90 | 95.2 | 96.4 | 105 | 97.7 | 98 | 97.8 | 95.2 | 101 | 95.3 | 99.2 | 91.7 |
| NC(=O)c1ncn([C@@H]2O[C@H](CO)[C@@H](O)[C@H]2O)n1 [ribavirin] | 0 | 0 | 0.3 | 0 | 0.2 | > 10 | > 10 | > 10 | > 10 | > 10 | 95.7 | 104 | 99.8 | 121 | 86.7 | 101 | 101 | 98.5 | 104 | 104 | 104 | 108 | 111 | 88.6 | 92.9 | 92 | 93.8 | 99.5 | 95.9 | 113 | 109 | 97.6 | 108 | 113 | 82.9 |
| Cc1ccc(NC2=CC(=O)c3sc(C)nc3C2=O)cc1 [ryuvidine] | 5.3 | 5.2 | 5.2 | 5.7 | 9 | 3.02 | 2.84 | 3.29 | 3.12 | 1.64 | 95.4 | 106 | 97.9 | 98.1 | 8.5 | 100 | 97.7 | 97.4 | 96.4 | 16.2 | 115 | 95.8 | 109 | 102 | 2.7 | 102 | 97.3 | 104 | 99.3 | 0 | 94.2 | 91.8 | 92.7 | 77.9 | 0.9 |
| C=C1/C(=C\C=C2/CCC[C@]3(C)[C@@H]([C@H](C)/C=C/C=C/C(O)(CC)CC)CC[C@@H]23)C[C@@H](O)C[C@@H]1O [seocalcitol] | 0 | 0 | 0 | 0 | 0 | > 10 | > 10 | > 10 | > 10 | > 10 | 104 | 97.3 | 99.3 | 112 | 99.4 | 96 | 93.5 | 88.7 | 96.6 | 96.7 | 107 | 102 | 99.2 | 95.7 | 94.9 | 99.9 | 95.5 | 105 | 96.5 | 89.6 | 98.5 | 87.2 | 97.4 | 98.5 | 97.4 |
| CCCC(=O)O [sodium-butyrate] | 0 | 0 | 0 | 0 | 0 | > 10 | > 10 | > 10 | > 10 | > 10 | 109 | 91.8 | 102 | 91.2 | 99.1 | 109 | 101 | 102 | 99.4 | 100 | 103 | 95.8 | 96.2 | 97.7 | 102 | 104 | 102 | 98.6 | 106 | 96.5 | 104 | 95.8 | 100 | 99.9 | 98.9 |
| COc1ccc(NS(=O)(=O)c2ccc(N)cc2)nn1 [sulfamethoxypyridazine] | 0 | 0 | 0 | 0 | 0 | > 10 | > 10 | > 10 | > 10 | > 10 | 99.7 | 114 | 110 | 97.2 | 98.8 | 103 | 100 | 97.1 | 98.6 | 104 | 93.3 | 93.5 | 100 | 97.4 | 95.6 | 99.9 | 94.3 | 97.4 | 101 | 99.7 | 97.9 | 99.8 | 94.8 | 101 | 98.2 |
